# Reference: patent US20120270943A1 (priority 2011, published 2012)
# What was measured:
# water solubility = format: physicochemical
# [1] = administration of D-aspartic acid hydrochloride and/or ethyl ester hydrochloride; format: in vivo; conditions: administration by ingestion, injection or nasal spray, 10 mg to 100 g per day
# Protocol: The D-aspartic acid hydrochloride or D-aspartic acid ethyl ester hydrochloride are administered by ingestion of pills, capsules, powdered drink mixes, beverages, confectionaries, syrups, and/or chewable tablets, or by injection of an aqueous solution, or via a nasal spray.
# humans = conditions: cited from earlier work
# pituitary gland; testes = conditions: in vivo; cited from earlier work
water solubility (in words) (water solubility),SMILES,LH and HGH levels [1],libido and/or mood [1],"strength, muscle mass, endurance and rate of recovery [1]",testosterone [1],"LH levels (humans; oral, almost four (4) grams a day, men)","rise of testosterone, level greater than day zero (humans; oral, almost four (4) grams a day, peak on day twelve (12), twenty-three (23) men) [%]",levels of testosterone after discontinuation (humans; three (3) days after discontinuation),effect in the testes upon testosterone production (pituitary gland; testes),release of Luteinizing Hormone (LH) and Growth Hormone (GH) from the pituitary gland (pituitary gland; testes)
high water solubility,CCOC(=O)C[C@@H](N)C(=O)OCC.Cl [D-aspartic acid diethyl ester hydrochloride],increase,improves/increases,increases,increase,–,–,–,–,–
–,Cl.N[C@H](CC(=O)O)C(=O)O [D-aspartic acid hydrochloride],increase,improves/increases,increases,increase,–,–,–,–,–
–,N[C@H](CC(=O)O)C(=O)O [D-aspartic acid],–,–,–,–,increased significantly,42,still significantly increased,direct stimulating effect,stimulate the release
